Test results reported in US20210063414A1, “METHODS FOR PREVENTING AND/OR TREATING BONE LOSS CONDITIONS BY MODULATING IRISIN” (Dana-Farber Cancer Institute, Inc., priority 2018, published 2021).

Target: T1, integrin αV/β5 (Homo sapiens, UniProt P06756+P18084)
T1 construct: expressed in transfected cells; host or cells: HEK293T
Experiment: FAK phosphorylation in HEK293T cells with forced expression of integrin αV/β5
Assay type: cell-based
Description: 100 nM irisin was incubated with 5 nM indicated his-tag integrins followed by immunoprecipitation using Ni-NTA agaroses. Precipitated integrins and co-precipitated irisin were analyzed by immunoblot analysis. […] HEK293T cells were seeded and incubated until 50% cell density. The cells were transfected with 0.1 μg plasmids of indicated integrins. After 48 hours, the cells were incubated with Freestyle293 medium for 3 hours and were treated with indicated concentration of irisin for 5 minutes. Cells were lysed to detect the indicated protein level using immunoblot analysis. […] MLO-Y4 cells were treated as described in FIG. 2D with addition of pretreatment of indicated antagonistic antibodies for 10 minutes. Cells were lysed to detect the indicated protein level using immunoblot analysis. […] MLO-Y4 cells were treated as described in FIG. 1B except with addition of the pretreatment of indicated antagonistic antibodies for 10 minutes. Sclerostin mRNA level was analyzed by qRT-PCR. Cyclophilin was used for house-keeping gene. […] The ribbon diagram is colored by HDX stabilization/destabilization. Percentages of deuterium differences are color-coded according to the smooth color gradient key at the bottom. Crystal structure of irisin dimer is from Protein Data Bank (PDB) (4 lsd) and a homology model of integrin β5 was built based on integrin β3 structure from PDB (4MMX).
100 nM irisin was incubated with 5 nM indicated his-tag integrins followed by immunoprecipitation using Ni-NTA agaroses. Precipitated integrins and co-precipitated irisin were analyzed by immunoblot analysis. […] HEK293T cells were seeded and incubated until 50% cell density. The cells were transfected with 0.1 μg plasmids of indicated integrins. After 48 hours, the cells were re-split to indicated dose of vitronectin-coated plates. Cells were incubated with culture medium for 3 hours. Cells were lysed to detect the indicated protein level using immunoblot analysis. FIG. 15C and FIG. 15D show the immunoblot data. Cells were treated and analyzed as FIG. 14B except using plasmids encoding integrin α5/β1 or integrin α11/β1 (FIG. 15C) integrin αV/β1(FIG. 15D).
MLO-Y4 cells were treated and analyzed as described in FIG. 5A with addition of pretreatment of control RGD peptide, cyclo RGDyK (cRGDyK), or SB273005. […] HEK293 cells were treated and analyzed as described in FIG. 14B except the treatment of different dose of cyclo RGDyK. […] 8 weeks old male mice were treated and analyzed as described in FIG. 5D except the additional group with co-injection of 1 mg/kg SB273005. […]
Cells were harvested in RIPA buffer containing protease-inhibitor cocktail and phosphataseinhibitor cocktail. […] Protein levels were analyzed via western blot using indicated antibody. […]

T1 sequence (P06756 31-889 limits assumed): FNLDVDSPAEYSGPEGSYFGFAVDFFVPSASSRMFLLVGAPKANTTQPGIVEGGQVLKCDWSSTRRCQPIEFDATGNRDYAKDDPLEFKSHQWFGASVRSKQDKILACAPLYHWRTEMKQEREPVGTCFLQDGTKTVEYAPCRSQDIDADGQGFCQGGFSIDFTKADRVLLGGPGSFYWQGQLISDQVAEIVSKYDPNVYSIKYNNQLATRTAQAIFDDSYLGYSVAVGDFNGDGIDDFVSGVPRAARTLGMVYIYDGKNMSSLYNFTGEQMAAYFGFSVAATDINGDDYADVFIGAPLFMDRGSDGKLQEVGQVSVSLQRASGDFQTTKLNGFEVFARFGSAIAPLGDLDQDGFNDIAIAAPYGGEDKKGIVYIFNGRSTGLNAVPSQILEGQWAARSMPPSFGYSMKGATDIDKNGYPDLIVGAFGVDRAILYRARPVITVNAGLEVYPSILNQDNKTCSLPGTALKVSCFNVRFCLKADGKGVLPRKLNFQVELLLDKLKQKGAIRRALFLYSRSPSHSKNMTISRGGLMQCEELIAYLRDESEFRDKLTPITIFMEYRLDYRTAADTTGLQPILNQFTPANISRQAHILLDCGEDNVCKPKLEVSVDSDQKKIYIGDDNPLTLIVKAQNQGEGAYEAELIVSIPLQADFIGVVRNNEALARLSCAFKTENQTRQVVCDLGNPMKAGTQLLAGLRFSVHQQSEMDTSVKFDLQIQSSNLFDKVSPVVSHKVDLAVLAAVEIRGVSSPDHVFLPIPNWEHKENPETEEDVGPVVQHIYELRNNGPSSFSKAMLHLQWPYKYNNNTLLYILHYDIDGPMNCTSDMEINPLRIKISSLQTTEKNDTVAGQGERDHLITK
T1 sequence (P06756 891-1048 partner limits assumed): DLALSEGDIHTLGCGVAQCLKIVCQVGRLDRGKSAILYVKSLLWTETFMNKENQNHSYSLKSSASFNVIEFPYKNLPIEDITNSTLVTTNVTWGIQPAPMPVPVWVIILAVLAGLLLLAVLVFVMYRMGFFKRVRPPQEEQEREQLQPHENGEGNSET
T1 sequence (P18084 24-799): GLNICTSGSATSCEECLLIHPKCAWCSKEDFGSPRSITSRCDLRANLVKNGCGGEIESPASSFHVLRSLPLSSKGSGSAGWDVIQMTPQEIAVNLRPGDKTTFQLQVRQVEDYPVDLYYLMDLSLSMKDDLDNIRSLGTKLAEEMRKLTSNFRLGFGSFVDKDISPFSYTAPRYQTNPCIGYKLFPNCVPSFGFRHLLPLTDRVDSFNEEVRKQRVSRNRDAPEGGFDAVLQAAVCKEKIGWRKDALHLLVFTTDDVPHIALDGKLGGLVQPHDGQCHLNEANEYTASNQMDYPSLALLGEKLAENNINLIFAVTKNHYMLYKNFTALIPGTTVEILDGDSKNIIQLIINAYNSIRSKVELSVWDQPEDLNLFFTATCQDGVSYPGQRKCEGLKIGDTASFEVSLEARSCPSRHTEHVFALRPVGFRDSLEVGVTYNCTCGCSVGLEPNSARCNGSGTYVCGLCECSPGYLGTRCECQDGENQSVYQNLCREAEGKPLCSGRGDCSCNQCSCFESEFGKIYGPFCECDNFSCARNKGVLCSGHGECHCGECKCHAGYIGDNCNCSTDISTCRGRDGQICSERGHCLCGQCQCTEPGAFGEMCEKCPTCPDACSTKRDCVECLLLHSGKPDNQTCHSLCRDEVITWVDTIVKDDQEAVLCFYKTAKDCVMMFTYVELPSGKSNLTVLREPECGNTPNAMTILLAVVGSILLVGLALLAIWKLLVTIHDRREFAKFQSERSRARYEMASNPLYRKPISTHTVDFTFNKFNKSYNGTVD

N=C(N)NCCC[C@@H]1NC(=O)[C@H](CCCCN)NC(=O)[C@@H](Cc2ccc(O)cc2)NC(=O)[C@H](CC(=O)O)NC(=O)CNC1=O [cyclo RGDyK]
effect on irisin-induced phosphorylation of FAK (HEK293T integrin αV/β5, 10 nM cyclo RGDyK): prevented phosphorylation of FAK significantly
effect on irisin-induced phosphorylation of FAK (HEK293T integrin αV/β5, 100 nM cyclo RGDyK): blocked the phosphorylation completely
IC50 (HEK293T with forced expression of integrin αV/β5, in the presence of irisin, from immunoblot, read-out: IC50 for blocking irisin-integrin αV/β5 signaling (phosphorylation of FAK)): 10 to 50 nM
